Test results as given in US7964629B2, “Inhibitors of isoprenylcysteine carboxyl methyltransferase” (Duke Universtiy, priority 2005, dated 2011).
Where two headings read alike, the source gives them in different places.

Target: T1, recombinant human Icmt (Homo sapiens, UniProt O60725)
T1 construct: recombinant baculovirus containing the entire open reading frame of the human Icmt cDNA; made in house; host or cells: Sf9 insect cells (baculovirus); membrane fraction used
Experiment: Icmt assay: [3H]methyl incorporation from [3H]AdoMet into BFC
Type: biochemical

[1] = Table 2, no pre-incubation, read-out: IC50
[2] = Table 3, pre-incubation with Icmt for 30 min at 37° C., read-out: IC50 PI (converted)

T1 sequence (O60725 whole entry): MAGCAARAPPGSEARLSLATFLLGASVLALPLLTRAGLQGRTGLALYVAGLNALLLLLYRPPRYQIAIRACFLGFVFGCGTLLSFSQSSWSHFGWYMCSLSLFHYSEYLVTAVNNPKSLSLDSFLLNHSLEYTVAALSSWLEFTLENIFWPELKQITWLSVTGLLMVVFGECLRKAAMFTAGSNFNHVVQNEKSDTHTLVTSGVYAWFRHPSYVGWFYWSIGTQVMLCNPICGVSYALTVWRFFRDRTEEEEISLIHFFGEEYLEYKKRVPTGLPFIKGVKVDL

Row | IC50 [1] [µM] | Compound | also measured
1 | 5 | CCCCCCCCn1cc(CC=O)c2cc(-c3ccc(Oc4ccccc4)cc3)ccc21 [9D18/A119047] | 
2 | 8 | CC(C)Cn1cc(CC=O)c2cc(-c3cc(C(F)(F)F)cc(C(F)(F)F)c3)ccc21 [9B22/A119064] | 
3 | 4 | CC(C)(C)c1ccc(Cn2cc(CC=O)c3cc(-c4cc(C(F)(F)F)cc(C(F)(F)F)c4)ccc32)cc1 [9B4/A119024] | 
4 | 9 | O=CCc1cn(Cc2ccccc2)c2ccc(-c3ccc(F)c(Cl)c3)cc12 [9N10/A119001] | 
5 | 3 | CCCCCCCCn1cc(CC=O)c2cc(-c3cccc(F)c3)ccc21 [9J18/A119045] | IC50 (Table 2, pre-incubation of enzyme with inhibitor, read-out: IC50 pre-inc): < 0.3 µM
6 | 20 | Cc1cccc(-c2ccc3c(c2)c(CC=O)cn3Cc2ccc3ccccc3c2)c1 [9N22/A119076] | 
7 |  | Cc1cccc(-c2ccc3c(c2)c(CC(N)=O)cn3Cc2ccccc2)c1 [(e1)/drawing 2] | IC50 [2]: 2.4 µM
8 |  | CCOc1cccc(-c2ccc3c(c2)c(CC=O)cn3Cc2cccc(C(F)(F)F)c2)c1 [9F10/A119038] | IC50: 6 µM
9 | 2 | CCCCCCCCn1cc(CC=O)c2cc(-c3cccc(OCC)c3)ccc21 [9F20/A119046] | 
10 | 5 | CC(C)(C)c1ccc(Cn2cc(CC=O)c3cc(-c4ccc(F)c(Cl)c4)ccc32)cc1 [9N6/A119025] | 
11 | 7 | O=CCc1cn(Cc2cccc(C(F)(F)F)c2)c2ccc(-c3ccc(Oc4ccccc4)cc3)cc12 [9D12/A119039] | 
12 | > 30 | O=CCc1cn(CCCOc2ccccc2)c2ccc(-c3cc(C(F)(F)F)cc(C(F)(F)F)c3)cc12 [9D10/A119048] | 
13 | > 30 | Cc1ccc(-c2ccc3c(c2)c(CC=O)cn3CC2CC2)cc1 [9N8/A119058] | 
14 | > 30 | CCCCCCCCn1cc(CC=O)c2cc(-c3cc(C(F)(F)F)cc(C(F)(F)F)c3)ccc21 [9L22/A119040] | 
15 | 20 | O=CCc1cn(CC2CC2)c2ccc(-c3cc(C(F)(F)F)cc(C(F)(F)F)c3)cc12 [9H12/A119056] | 
16 | 7 | Cc1ccc(-c2ccc3c(c2)c(CC=O)cn3Cc2cccc(C(F)(F)F)c2)cc1 [9H4/A119034] | 
17 | 3 | CCOc1cccc(-c2ccc3c(c2)c(CC=O)cn3Cc2ccc(C(C)(C)C)cc2)c1 [9B6/A119030] | 
18 | > 30 | O=CCc1cn(Cc2cccc(C(F)(F)F)c2)c2ccc(-c3cc(C(F)(F)F)cc(C(F)(F)F)c3)cc12 [9L10/A119032] | 
19 | > 30 | COc1ccccc1-c1ccc2c(c1)c(CC=O)cn2CC1CC1 [9F8/A119059] | 
20 | 18 | O=CCc1cn(Cc2ccccc2)c2ccc(-c3cc(C(F)(F)F)cc(C(F)(F)F)c3)cc12 [9H6/A119000] | 
21 | 4 | CC(C)(C)c1ccc(Cn2cc(CC=O)c3cc(-c4cccc(F)c4)ccc32)cc1 [9B12/A119029] | 

Row | IC50 [1] [µM] | Compound | also measured
22 | 7 | O=CCc1cn(Cc2ccccc2)c2ccc(-c3ccc(Oc4ccccc4)cc3)cc12 [9B8/A119007] | 
23 |  | CC(C)Cn1cc(CC(N)=O)c2cc(-c3cccc(F)c3)ccc21 [(a1)/drawing 3] | IC50 (Table 1, R1 substituent x scaffold matrix, read-out: IC50): 13.7 ± 0.3 µM
24 |  | CCCCCCn1cc(CC(N)=O)c2cc(-c3cccc(C)c3)ccc21 [(c1)/drawing 2] | IC50 [2]: 1.7 µM
25 | 6 | O=CCc1cn(Cc2cccc(C(F)(F)F)c2)c2ccc(-c3ccc(F)c(Cl)c3)cc12 [9H14/A119033] | 
26 |  | Cc1cccc(-c2ccc3c(c2)c(CC(N)=O)cn3CC2CC2)c1 [(b1)/drawing 2] | IC50 [2]: 9.5 µM
27 | 23 | CCCCCCn1cc(CC=O)c2cc(-c3ccc(C)cc3)ccc21 [9L4/A119018] | 
28 | 5 | CCCCCCCCn1cc(CC=O)c2cc(-c3ccccc3OC)ccc21 [9J16/A119043] | 
29 | 7 | CCCCCCn1cc(CC=O)c2cc(-c3cccc(OCC)c3)ccc21 [9H10/A119022] | 
30 |  | Cc1cccc(-c2ccc3c(c2)c(CC(N)=O)cn3CC(C)C)c1 [(a1)/drawing 2] | IC50 [2]: 17.7 µM
31 | > 30 | O=CCc1cn(CC2CC2)c2ccc(-c3ccc(F)c(Cl)c3)cc12 [9J8/A119057] | 
32 | 1 | CCCCCCCCn1cc(CC=O)c2cc(-c3ccc(F)c(Cl)c3)ccc21 [9L8/A119041] | 
33 | 9 | CCCCCCCCn1cc(CC=O)c2cc(-c3ccc(C)cc3)ccc21 [9L6/A119042] | 
34 | 20 | O=CCc1cn(Cc2ccc3ccccc3c2)c2ccc(-c3ccc(Oc4ccccc4)cc3)cc12 [9N14/A119079] | 
35 | 20 | CCCCCCn1cc(CC=O)c2cc(-c3ccc(Oc4ccccc4)cc3)ccc21 [9D20/A110023] | 
36 | 14 | O=CCc1cn(CCCOc2ccccc2)c2ccc(-c3ccc(Oc4ccccc4)cc3)cc12 [9B20/A119055] | 
37 | 18 | COc1ccccc1-c1ccc2c(c1)c(CC=O)cn2Cc1ccc2ccccc2c1 [9N12/A119075] | 
38 |  | biotin-S-farnesyl-L-cysteine [BFC, reference compound] | Km (standard in vitro methylation assay, read-out: Km as Icmt substrate): 2.1 ± 0.4 µM
39 |  | Cc1cccc(-c2ccc3c(c2)c(CC(N)=O)cn3Cc2cccc(C(F)(F)F)c2)c1 [(g1)/drawing 2] | IC50 [2]: 0.71 µM
40 | 7 | CCCCCCn1cc(CC=O)c2cc(-c3ccc(F)c(Cl)c3)ccc21 [9F18/A119017] | 
41 | 7 | CCCCCCn1cc(CC=O)c2cc(-c3cccc(C)c3)ccc21 [9J22/A119020] | 
